Measured values taken from ChEMBL document CHEMBL5696439 (Cancer Res, 2010).
Calls of active or inactive are those of the source. The rule behind the calls is not given here.

What was measured:
[1] = target: cAMP-dependent protein kinase catalytic subunit alpha (Homo sapiens) (UniProt P17612); experiment: Inhibition of recombinant human His-tagged PRKACA (1-351 residues) expressed in E.coli at 2 uM using Ser/Thr 01 as substrate measured after 1 hr by Z'-LYTE assay relative to control
[2] = target: Dual specificity protein kinase CLK1 (Homo sapiens) (UniProt P49759); experiment: Inhibition of recombinant human GST-tagged CLK1 (129-484 residues) expressed in E. coli at 2 uM using Ser/Thr 09 as substrate measured after 1 hr by Z'-LYTE assay relative to control
[3] = target: Ribosomal protein S6 kinase alpha-4 (Homo sapiens) (UniProt O75676); experiment: Inhibition of recombinant human full length GST-tagged RPS6KA4 expressed in insect cells at 2 uM using Ser/Thr 01 as substrate measured after 1 hr by Z'-LYTE assay relative to control; settings: Insect cell
[4] = target: MAP kinase-activated protein kinase 2 (Homo sapiens) (UniProt P49137); experiment: Inhibition of recombinant human full length His-tagged MAPKAPK2 expressed in E. coli at 2 uM using Ser/Thr 04 as substrate measured after 1 hr by Z'-LYTE assay relative to control
[5] = target: Fibroblast growth factor receptor 3 (Homo sapiens) (UniProt P22607); experiment: Inhibition of recombinant human His-tagged FGFR3 (399-806 residues) expressed in insect cells at 2 uM using Tyr 04 as substrate measured after 1 hr by Z'-LYTE assay relative to control; settings: Insect cell
[6] = target: Myosin light chain kinase 2, skeletal/cardiac muscle (Homo sapiens) (UniProt Q9H1R3); experiment: Inhibition of recombinant human full length GST-tagged MYLK2 expressed in insect cells at 2 uM using Ser/Thr 13 as substrate measured after 1 hr by Z'-LYTE assay relative to control; settings: Insect cell
[7] = tested on: Platelet-derived growth factor receptor alpha (Homo sapiens), P16234 [V561D]; experiment: Inhibition of recombinant human GST-tagged PDGFRA V561D mutant (550-1089 residues) expressed in insect cells at 2 uM using Tyr 04 as substrate measured after 1 hr by Z'-LYTE assay relative to control; settings: Insect cell
U-87 MG = experiment: Antiproliferative activity against human U-87MG cells assessed as cell growth inhibition incubated for 24 hrs by MTS assay; format: functional, cell-based, U-87MG ATCC
[8] = target: Glycogen synthase kinase-3 alpha (Homo sapiens) (UniProt P49840); experiment: Inhibition of recombinant human full-length GST-tagged GSK3A expressed in insect cells at 2 uM using Ser/Thr 09 as substrate measured after 1 hr by Z'-LYTE assay relative to control; settings: Insect cell
[9] = tested on: Proto-oncogene tyrosine-protein kinase receptor Ret (Homo sapiens), P07949 [Y791F]; experiment: Inhibition of recombinant human GST-tagged RET Y791F mutant (658-1114 residues) expressed in baculovirus expression system at 2 uM using Tyr 02 as substrate measured after 1 hr by Z'-LYTE assay relative to control
[10] = target: PAS domain-containing serine/threonine-protein kinase (Homo sapiens) (UniProt Q96RG2); experiment: Inhibition of recombinant human GST-tagged PASK (879-1323 residues) expressed in insect cells at 2 uM using Ser/Thr 07 as substrate measured after 1 hr by Z'-LYTE assay relative to control; settings: Insect cell
HT-29 [11] = experiment: Induction of apoptosis in human HT-29 cells assessed as increase in PARP cleavage at 0.3 to 3 micromol/L incubated for 48 hrs by Western blot analysis; format: functional, cell-based; settings: dose 0.3-3 µmol/L
[12] = target: Tyrosine-protein kinase ITK/TSK (Homo sapiens) (UniProt Q08881); experiment: Inhibition of recombinant human full-length GST-tagged ITK expressed in insect cells at 2 uM using Tyr 01 as substrate measured after 1 hr by Z'-LYTE assay relative to control; settings: Insect cell
A498 [13] = experiment: cells; settings: Homo sapiens, A498, 48 h
Description: Antiproliferative activity against human A498 cells assessed as cell growth inhibition incubated for 2 days by MTS assay

A498 [14] = experiment: Synergistic antitumor activity against human A498 cells xenografted in female nude mouse model assessed as cause in tumor regression at 50 mg/kg, po qd administered as 5 days on/2 days off regimen for 4 cycles in the presence of BEV; format: functional, organism-based; settings: time 28.0 day
mTORC1 (Homo sapiens) = mTORC1 (Homo sapiens) (UniProt P42345+Q8N122+Q9BVC4); settings: U-87 MG, dose 0.025-2 µmol/L, time 6.0 hrs
MDA-MB-361 [15] = experiment: Induction of apoptosis in human MDA-MB-361 cells assessed as PARP cleavage at 0.05 to 5 micromol/L incubated for 48 hrs by Western blot analysis; format: functional, cell-based; settings: dose 0.05-5 µmol/L
HT-29 [16] = experiment: Antitumor activity against human HT-29 cells xenografted in female nude mouse model assessed as suppression in P-S6K at T389 level at 50 mg/kg, iv administered once a week and measured at least 8 hrs by immunoblot analysis; format: functional, organism-based
[17] = target: Mitogen-activated protein kinase 1 (Homo sapiens) (UniProt P28482); experiment: Inhibition of recombinant human full length GST-tagged MAPK1 expressed in E.coli at 2 uM using Ser/Thr 03 as substrate measured after 1 hr by Z'-LYTE assay relative to control
[18] = target: Dual specificity tyrosine-phosphorylation-regulated kinase 3 (Homo sapiens) (UniProt O43781); experiment: Inhibition of recombinant human full-length GST-tagged DYRK3 expressed in insect cells at 2 uM using Ser/Thr 09 as substrate measured after 1 hr by Z'-LYTE assay relative to control; settings: Insect cell
MDA-MB-361 [19] = experiment: Induction of apoptosis in human MDA-MB-361 cells assessed as decrease in AKT phosphorylation at S473 level at 0.05 to 5 micromol/L incubated for 48 hrs by Western blot analysis; format: functional, cell-based; settings: dose 0.05-5 µmol/L
[20] = target: Tyrosine-protein kinase Blk (Homo sapiens) (UniProt P51451); experiment: Inhibition of recombinant human full-length His-tagged BLK expressed in insect cells at 2 uM using Tyr 01 as substrate measured after 1 hr by Z'-LYTE assay relative to control; settings: Insect cell
[21] = target: Activin receptor type-1B (Homo sapiens) (UniProt P36896); experiment: Inhibition of recombinant human GST-tagged ACVR1B (150 to 505 residues) expressed in insect cells at 2 uM using Ser/Thr 16 as substrate measured after 1 hr by Z'-LYTE assay relative to control; settings: Insect cell
NCI-H1975 = experiment: Antiproliferative activity against human NCI-H1975 cells assessed as cell growth inhibition incubated for 24 hrs by MTS assay; format: functional, cell-based; settings: NCI-H1975, 24 h
[22] = target: Protein-tyrosine kinase 6 (Homo sapiens) (UniProt Q13882); experiment: Inhibition of recombinant human full length His-tagged PTK6 expressed in baculovirus expression system at 2 uM using […] as substrate measured after 1 hr by Z'-LYTE assay relative to control
[23] = target: Cyclin-dependent kinase 5/CDK5 activator 1 (Homo sapiens) (UniProt Q00535+Q15078); experiment: Inhibition of recombinant human full-length GST/His-tagged CDK5/p35 expressed in insect cells at 2 uM using Ser/Thr 12 as substrate measured after 1 hr by Z'-LYTE assay relative to control; settings: Insect cell

Tyrosine-protein kinase ITK/TSK (Homo sapiens), sequence (Q08881 whole entry): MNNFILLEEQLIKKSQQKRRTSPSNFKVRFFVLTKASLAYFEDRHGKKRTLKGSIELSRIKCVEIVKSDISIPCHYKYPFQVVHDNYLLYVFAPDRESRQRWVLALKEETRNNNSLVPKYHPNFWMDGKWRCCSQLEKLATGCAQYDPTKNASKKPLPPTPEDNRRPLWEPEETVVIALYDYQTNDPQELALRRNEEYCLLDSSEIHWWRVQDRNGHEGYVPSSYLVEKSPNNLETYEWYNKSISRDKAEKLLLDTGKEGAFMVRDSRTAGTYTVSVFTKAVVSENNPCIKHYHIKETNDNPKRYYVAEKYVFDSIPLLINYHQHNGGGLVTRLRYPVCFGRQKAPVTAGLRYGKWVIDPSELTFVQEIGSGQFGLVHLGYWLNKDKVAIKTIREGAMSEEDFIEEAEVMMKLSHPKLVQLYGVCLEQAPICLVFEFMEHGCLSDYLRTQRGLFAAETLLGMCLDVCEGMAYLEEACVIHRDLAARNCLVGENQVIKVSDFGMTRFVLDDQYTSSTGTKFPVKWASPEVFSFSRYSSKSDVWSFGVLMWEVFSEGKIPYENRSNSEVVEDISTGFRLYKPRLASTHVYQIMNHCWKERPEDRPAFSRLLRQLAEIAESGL
Myosin light chain kinase 2, skeletal/cardiac muscle (Homo sapiens), sequence (Q9H1R3 whole entry, the tested form may be a part): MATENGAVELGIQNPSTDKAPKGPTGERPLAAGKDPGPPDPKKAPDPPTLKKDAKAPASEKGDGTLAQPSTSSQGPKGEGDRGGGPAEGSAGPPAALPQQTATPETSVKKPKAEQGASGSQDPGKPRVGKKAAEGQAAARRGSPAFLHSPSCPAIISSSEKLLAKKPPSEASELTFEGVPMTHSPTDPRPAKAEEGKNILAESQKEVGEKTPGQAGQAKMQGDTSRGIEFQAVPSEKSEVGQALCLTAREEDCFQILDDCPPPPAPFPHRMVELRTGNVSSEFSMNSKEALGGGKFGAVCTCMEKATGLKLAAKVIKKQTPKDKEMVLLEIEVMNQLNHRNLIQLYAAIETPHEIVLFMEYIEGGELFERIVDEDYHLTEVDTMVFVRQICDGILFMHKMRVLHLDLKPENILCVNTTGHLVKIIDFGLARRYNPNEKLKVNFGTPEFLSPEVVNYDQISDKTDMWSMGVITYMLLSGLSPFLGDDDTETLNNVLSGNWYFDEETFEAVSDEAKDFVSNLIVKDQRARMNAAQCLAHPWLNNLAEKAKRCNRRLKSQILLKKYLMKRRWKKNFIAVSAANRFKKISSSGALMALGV
mTORC1 (Homo sapiens), sequence (Q8N122 whole entry, looked up, other chains not shown): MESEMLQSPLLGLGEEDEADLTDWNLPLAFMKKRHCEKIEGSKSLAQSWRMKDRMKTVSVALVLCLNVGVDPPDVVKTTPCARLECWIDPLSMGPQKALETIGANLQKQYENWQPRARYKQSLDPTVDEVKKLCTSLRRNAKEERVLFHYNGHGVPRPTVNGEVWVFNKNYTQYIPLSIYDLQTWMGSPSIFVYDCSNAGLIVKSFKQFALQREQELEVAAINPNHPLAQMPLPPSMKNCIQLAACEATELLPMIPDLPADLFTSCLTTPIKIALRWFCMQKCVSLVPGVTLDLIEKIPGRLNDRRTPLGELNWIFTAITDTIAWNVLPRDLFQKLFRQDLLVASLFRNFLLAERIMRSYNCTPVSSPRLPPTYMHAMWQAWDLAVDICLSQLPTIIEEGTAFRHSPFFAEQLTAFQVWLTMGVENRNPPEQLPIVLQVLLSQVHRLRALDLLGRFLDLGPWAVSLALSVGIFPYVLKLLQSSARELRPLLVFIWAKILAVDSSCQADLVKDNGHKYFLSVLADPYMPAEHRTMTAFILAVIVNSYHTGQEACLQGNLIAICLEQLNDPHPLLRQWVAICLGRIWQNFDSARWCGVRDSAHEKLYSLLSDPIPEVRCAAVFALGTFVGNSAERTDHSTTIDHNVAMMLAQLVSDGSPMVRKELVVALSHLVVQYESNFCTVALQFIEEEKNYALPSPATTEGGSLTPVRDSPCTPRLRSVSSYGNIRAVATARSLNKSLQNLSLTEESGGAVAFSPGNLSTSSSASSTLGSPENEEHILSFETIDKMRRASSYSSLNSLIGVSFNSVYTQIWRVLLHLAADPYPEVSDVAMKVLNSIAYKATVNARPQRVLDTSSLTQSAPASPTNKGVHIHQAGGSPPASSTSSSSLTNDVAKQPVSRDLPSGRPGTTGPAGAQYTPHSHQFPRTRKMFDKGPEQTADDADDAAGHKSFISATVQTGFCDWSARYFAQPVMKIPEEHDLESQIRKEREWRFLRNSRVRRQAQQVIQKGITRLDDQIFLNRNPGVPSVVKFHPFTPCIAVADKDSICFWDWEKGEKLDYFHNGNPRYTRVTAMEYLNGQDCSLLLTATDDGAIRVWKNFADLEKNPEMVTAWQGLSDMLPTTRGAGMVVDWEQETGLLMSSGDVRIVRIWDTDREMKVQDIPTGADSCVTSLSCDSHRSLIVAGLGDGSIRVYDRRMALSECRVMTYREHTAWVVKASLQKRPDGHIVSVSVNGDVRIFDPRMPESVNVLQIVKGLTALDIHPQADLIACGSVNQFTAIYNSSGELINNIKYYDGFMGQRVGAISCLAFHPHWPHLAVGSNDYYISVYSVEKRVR
mTORC1 (Homo sapiens), sequence (Q9BVC4 whole entry, looked up, other chains not shown): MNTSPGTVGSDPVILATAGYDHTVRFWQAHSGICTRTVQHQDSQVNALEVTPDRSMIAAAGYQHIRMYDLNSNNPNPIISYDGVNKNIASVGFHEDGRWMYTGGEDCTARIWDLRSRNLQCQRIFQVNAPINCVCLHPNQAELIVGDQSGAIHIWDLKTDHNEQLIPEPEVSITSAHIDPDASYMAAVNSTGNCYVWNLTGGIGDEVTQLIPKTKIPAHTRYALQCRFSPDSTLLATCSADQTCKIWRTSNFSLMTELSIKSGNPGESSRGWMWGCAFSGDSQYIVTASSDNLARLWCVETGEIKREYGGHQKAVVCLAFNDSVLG
Dual specificity tyrosine-phosphorylation-regulated kinase 3 (Homo sapiens), sequence (O43781 whole entry): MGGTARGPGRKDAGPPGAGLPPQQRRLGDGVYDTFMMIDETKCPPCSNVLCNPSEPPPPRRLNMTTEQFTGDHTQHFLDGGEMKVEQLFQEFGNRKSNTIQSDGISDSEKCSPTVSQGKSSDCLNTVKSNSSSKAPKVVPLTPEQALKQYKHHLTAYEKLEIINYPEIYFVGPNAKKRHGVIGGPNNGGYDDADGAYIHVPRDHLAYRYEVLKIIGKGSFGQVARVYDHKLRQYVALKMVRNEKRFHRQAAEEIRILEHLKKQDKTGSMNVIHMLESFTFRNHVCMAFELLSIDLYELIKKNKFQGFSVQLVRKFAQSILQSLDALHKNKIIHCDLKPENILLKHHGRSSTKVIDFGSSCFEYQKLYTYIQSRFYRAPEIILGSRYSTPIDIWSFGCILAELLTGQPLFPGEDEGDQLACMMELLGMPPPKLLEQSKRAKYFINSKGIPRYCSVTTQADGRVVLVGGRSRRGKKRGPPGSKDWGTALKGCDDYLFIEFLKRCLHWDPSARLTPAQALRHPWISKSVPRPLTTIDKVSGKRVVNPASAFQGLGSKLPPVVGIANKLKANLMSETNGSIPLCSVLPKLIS
Tyrosine-protein kinase Blk (Homo sapiens), sequence (P51451 2-505 limits assumed): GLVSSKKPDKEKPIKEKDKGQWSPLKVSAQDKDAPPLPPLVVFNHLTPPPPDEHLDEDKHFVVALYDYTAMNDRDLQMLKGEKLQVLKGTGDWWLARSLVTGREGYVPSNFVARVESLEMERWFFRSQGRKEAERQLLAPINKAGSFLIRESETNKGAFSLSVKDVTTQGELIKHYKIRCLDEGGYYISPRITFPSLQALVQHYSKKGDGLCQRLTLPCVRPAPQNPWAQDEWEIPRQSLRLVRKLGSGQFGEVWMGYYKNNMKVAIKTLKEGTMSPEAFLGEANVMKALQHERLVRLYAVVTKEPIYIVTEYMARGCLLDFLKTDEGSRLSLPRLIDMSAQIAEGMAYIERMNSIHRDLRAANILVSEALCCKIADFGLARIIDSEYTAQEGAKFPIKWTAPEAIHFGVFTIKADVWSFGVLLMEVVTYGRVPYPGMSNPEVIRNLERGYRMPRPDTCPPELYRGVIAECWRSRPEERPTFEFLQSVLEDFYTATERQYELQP
MAP kinase-activated protein kinase 2 (Homo sapiens), sequence (P49137 whole entry, looked up, the tested form may be a part): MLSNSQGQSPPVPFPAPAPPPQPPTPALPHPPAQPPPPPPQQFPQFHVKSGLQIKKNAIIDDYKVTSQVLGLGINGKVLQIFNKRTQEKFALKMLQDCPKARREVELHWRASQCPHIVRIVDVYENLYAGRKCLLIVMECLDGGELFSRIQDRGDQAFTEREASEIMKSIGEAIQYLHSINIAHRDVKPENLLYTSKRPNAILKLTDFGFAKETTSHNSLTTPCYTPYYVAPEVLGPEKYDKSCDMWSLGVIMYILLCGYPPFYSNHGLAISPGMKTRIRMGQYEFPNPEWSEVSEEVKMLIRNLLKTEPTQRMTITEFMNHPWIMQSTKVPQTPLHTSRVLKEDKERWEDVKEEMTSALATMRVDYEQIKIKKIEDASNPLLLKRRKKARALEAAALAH
Glycogen synthase kinase-3 alpha (Homo sapiens), sequence (P49840 2-483 limits assumed): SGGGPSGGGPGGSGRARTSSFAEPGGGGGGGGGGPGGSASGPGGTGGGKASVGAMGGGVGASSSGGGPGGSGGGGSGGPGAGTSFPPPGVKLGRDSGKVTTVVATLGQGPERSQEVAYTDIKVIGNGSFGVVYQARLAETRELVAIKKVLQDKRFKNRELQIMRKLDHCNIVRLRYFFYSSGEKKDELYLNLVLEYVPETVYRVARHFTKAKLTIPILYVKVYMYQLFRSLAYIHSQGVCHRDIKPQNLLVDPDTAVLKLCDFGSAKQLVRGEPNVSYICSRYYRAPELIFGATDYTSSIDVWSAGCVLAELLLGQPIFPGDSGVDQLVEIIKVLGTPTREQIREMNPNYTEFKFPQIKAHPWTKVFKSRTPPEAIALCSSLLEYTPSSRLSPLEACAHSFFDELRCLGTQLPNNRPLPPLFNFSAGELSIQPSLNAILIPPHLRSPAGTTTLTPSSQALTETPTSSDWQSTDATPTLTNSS

`CNC(=O)Nc1ccc(-c2nc(N3CC4CCC(C3)O4)c3cnn(C4CCC5(CC4)OCCO5)c3n2)cc1` gave an inhibition [1] of -3%, an inhibition [2] of -3% and an inhibition [3] of 1%. For the same molecule, the inhibition [4] was 4%, the inhibition [5] was 5% and the inhibition [6] was 8%. It also gave an inhibition [7] of 3%, an IC50 (U-87 MG) of 65 nM and an inhibition [8] of -1%. The inhibition [9] was 2%, the inhibition [10] was 3% and the Activity (HT-29 [11]) was “inactive”. The inhibition [12] was 2%, the IC50 (A498 [13]) was 2500 nM and the Activity (A498 [14]) was “Active”. The inhibition (mTORC1 (Homo sapiens)) was “Active”, the Activity (MDA-MB-361 [15]) was “Active” and the Activity (HT-29 [16]) was “Active”. The inhibition [17] was 0%, the inhibition [18] was -1% and the Activity (MDA-MB-361 [19]) was “Active”. The inhibition [20] was 1%, the inhibition [21] was 3% and the IC50 (NCI-H1975) was 70 nM. It also gave an inhibition [22] of 8% and an inhibition [23] of -4%.
